According to patent US20250129064A1, “PRODRUGS OF 2-BROMO-LSD (2-BRO[…] DIETHYLAMIDE)” (Terran Biosciences Inc., priority 2022, published 2025):
“And” between values parts separate entries of the source, which are not always exact repeats. Identical values can stand only once.

Experiment: Serial tail vein bleed PK study of 2-Br-LSD and 2-Br-LSD prodrugs in SD rats; 2-Br-LSD measured in plasma
Conditions: analyte 2-Br-LSD in plasma; for AUC(0-t): AUC0-last; for half-life: T½
[1] = 2-Br-LSD 1 mg/kg IV, male SD rat, individual animal
[2] = 2-Br-LSD 4 mg/kg oral, male SD rat, individual animal
[3] = male, Sprague-Dawley, rat, plasma, iv, 1 mg/kg, 2-Br-LSD 1 mg/kg IV, male SD rat, individual animal
[4] = male, Sprague-Dawley, rat, plasma, iv, 1 mg/kg, 2-Br-LSD 1 mg/kg IV, male SD rats, mean of 3
[5] = male, Sprague-Dawley, rat, plasma, po, 4 mg/kg, 2-Br-LSD 4 mg/kg oral, male SD rat, individual animal
[6] = male, Sprague-Dawley, rat, plasma, po, 4 mg/kg, 2-Br-LSD 4 mg/kg oral, male SD rats, mean of 3

In the case of CCN(CC)C(=O)[C@@H]1C=C2c3cccc4[nH]c(Br)c(c34)C[C@H]2N(C)C1 [Example 2-Br-LSD, (6aR,9R)-5-bromo-N,N-diethyl-7-methyl-6,6a,8,9-tetrahydro-4H-indolo[4,3-fg]quinoline-9-carboxamide], the AUC0-inf [1] is reported as 269 ng·h/mL and 308 ng·h/mL, the AUC0-last [1] is reported as 268 ng·h/mL and 304 ng·h/mL and the Cmax [1] is reported as 658 ng/mL and 500 ng/mL. The Tlast [1] was 4.00 h, the T½ [1] was 37.7 min and 44.8 min and the Tlast (2-Br-LSD 1 mg/kg IV, male SD rats, mean of 3) was 4.00 h. The AUC0-inf [2] was 1960 ng·h/mL and 1450 ng·h/mL, the AUC0-last [2] was 1430 ng·h/mL and 997 ng·h/mL and the Cmax [2] was 366.0 ng/mL and 209.0 ng/mL. For the same compound, the Tlast [2] was 7 h, the T½ [2] was 240 min and the Tlast (2-Br-LSD 4 mg/kg oral, male SD rats, mean of 3) was 7 h. The AUC0-inf (male, Sprague-Dawley, rat, plasma, iv, 1 mg/kg, AUC0-inf, 2-Br-LSD 1 mg/kg IV, male SD rat, individual animal) was 280 ng·h/mL, the AUC0-inf (male, Sprague-Dawley, rat, plasma, iv, 1 mg/kg, AUC0-inf, 2-Br-LSD 1 mg/kg IV, male SD rats, mean of 3) was 286 ng·h/mL and the AUC(0-t) [3] was 278 ng·h/mL. The AUC(0-t) [4] was 283 ng·h/mL, the Cmax (male, Sprague-Dawley, rat, plasma, iv, 1 mg/kg, Cmax, 2-Br-LSD 1 mg/kg IV, male SD rat, individual animal) was 577 ng/mL and the Cmax (male, Sprague-Dawley, rat, plasma, iv, 1 mg/kg, Cmax, 2-Br-LSD 1 mg/kg IV, male SD rats, mean of 3) was 578 ng/mL. It also gave a half-life [3] of 44.3 min, a half-life [4] of 42.2 min and an AUC0-inf (male, Sprague-Dawley, rat, plasma, po, 4 mg/kg, AUC0-inf, 2-Br-LSD 4 mg/kg oral, male SD rat, individual animal) of 1780 ng·h/mL. For the same compound, the AUC0-inf (male, Sprague-Dawley, rat, plasma, po, 4 mg/kg, AUC0-inf, 2-Br-LSD 4 mg/kg oral, male SD rats, mean of 3) was 1730 ng·h/mL, the AUC(0-t) [5] was 1350 ng·h/mL and the AUC(0-t) [6] was 1260 ng·h/mL. The Cmax (male, Sprague-Dawley, rat, plasma, po, 4 mg/kg, Cmax, 2-Br-LSD 4 mg/kg oral, male SD rat, individual animal) was 338 ng/mL, the Cmax (male, Sprague-Dawley, rat, plasma, po, 4 mg/kg, Cmax, 2-Br-LSD 4 mg/kg oral, male SD rats, mean of 3) was 304 ng/mL and the half-life [5] was 216 min. The half-life [6] was 222 min.
